{
  "source": "patent US9363996B2",
  "about": "“Compositions and method for blocking ethylene response in field crops using 3-(cy-clopropyl-l-enyl)-propanoic salt” (Yissum Research Development Company of the Hebrew …, priority 2009, dated 2016)",
  "key": {"[1]": {"tested_on": "Winter wheat", "assay": "Field experiment in wheat: seed yield and seed weight", "format": "in vivo, Winter wheat (Ttriticum aestivum, var. Galil)", "conditions": "for yield increase over the control, hand-separated: g/100 spikes; for seed yield increase compared to the untreated control, mechanically thresh separated: g/plot", "text": "Plant material and experimental design—Winter wheat (Ttriticum aestivum, var. Galil) was sown in December 2008 in a medium-heavy soil in the farm of the Volcani Center, Agricultural Research Organization, Bet-Dagan, Israel. Winter rainfall between October and March was 515 mm. The crop was raised without irrigation. The plants were sprayed twice with insecticide in November with ‘Tunex’ (one L/acre) and in December with ‘Oror Turbo’ (200 g/acre). The experiment started in mid-March, 2009. Six blocks were randomly selected, and each block was further randomly divided into four treatment plots of two square meters each (FIG. 67A—right and left). Two-meter-wide strips of untreated plants served as border lines between the blocks (FIG. 67A—center). The following treatments were applied: 1. control; 2. spraying WS-CPD at the ‘Milky’ stage I (30.3.09); 3. spraying WS-CPD at the ‘Milky’ stage II (17.4.09); 4. two successive WS-CPD sprays as above (30.3.09 and 17.4.09).\nTreatments—The treatment solution of WS-CPD contained 120 μg mL^−1 of WS-CPD in 10 mM K-phosphate buffer (pH 7.6) and 0.1% of ‘Kinetic’ surfactant. Spraying (about 0.8 L/two square meters) was applied with a portable sprayer (ACL 7-L, Great Brittan). The controls were sprayed with the treatment solution without WS-CPD. The spraying was aimed to cover the upper part of the plants, from the second leaf below the ‘Flag leaf’ and up, covering the whole spike.\nDetermination of seed development—In order to follow the dynamics of seed development from ‘Milky’ stage I to seed maturity, groups of 200 spikes were sampled from the border strips. Samples were taken on 30.3.09 (‘Milky’ stage I), 17.4.09 (‘Milky’ stage II), and 19.5.09 (seed maturity). The spikes were brought to the laboratory and dried in an oven (60° C.) until complete dryness. After drying, the seeds were separated from each spike, counted, and their weight was recorded to determine the average seed weight for each spike. The number of spikes with the same average seed weight of each treatment was expressed as percent of total spike number.\nHarvesting—At the termination of the experiment (19.5.09), when the seeds reached full maturity, the spikes from all six blocks were harvested, counted, and placed on tables in the greenhouse for 12 days to reach complete dryness (FIG. 67B).\nHand seed separation—One hundred dried spikes were randomly sampled of each plot (n=6) after harvesting. The seeds of each spike were separated (FIGS. 67C and D) and counted and their weight was determined. The seed weight of each spike was divided by the number of seeds per spike to determine the average seed weight of each spike. The number of spikes of each treatment with the same average seed weight was expressed as percent of total spike number.\nMechanical thresh seed separation—The remaining dry spikes of each experimental plot were counted and mechanically thresh separated (Kurt Pelz Co., Germany) from their glumes and chafes, and their dry weight was recorded (g/plot). For comparison of the yield weight of the controls between mechanical thresh and hand separation, 200 seeds from each method were randomly sampled.\nEffect of WS-CPD on Yield—This effect of WS-CPD was studied by two ways: a) calculating the yield of each experimental plot (g/plot) and; b) calculating the yield dry weight of 100 spikes randomly selected in each experimental plot (g/100 spikes)."}, "[2]": {"tested_on": "wheat plants", "assay": "Wheat grain yield, 450 ml pots in peat-based medium", "format": "in vivo, wheat (Triticum turgidum var. 'Gdera')", "conditions": "one spray WS-CPD 120 μl L^−1 (so in the source) at milky stage II", "procedure": "In another experiment the wheat plants were grown in 450 ml pots in a peat-based medium. The plants were sprayed once with WS-CPD (120 μl L^−1) at milky stage II, 7 months after germination. The results confirmed previous results, showing a −15% increase in grain yield over the weight of the grains of untreated control plants (FIG. 54). This is also evident when calculating the distribution of grain weight (as percentage of the total number of grains) and comparing them with grain weight distribution from control plants."}, "[3]": {"conditions": "WS-CPD 120 μg mL^−1 spray at 'Milky' stage I"}, "[4]": {"conditions": "WS-CPD 120 μg mL^−1 spray at 'Milky' stage II"}},
  "data": [
    {"smiles": "O=C([O-])CCC1=CC1.[Na+]", "note": "[WS-CPD, 3-cyclopropyl-1-enyl-propanoic sodium salt]", "values": [
      {"measurement": "yield increase over the control, hand-separated", "setting": "[1]; [3]", "value": "about 15±2.6%"},
      {"measurement": "seed yield increase compared to the untreated control, mechanically thresh separated", "setting": "[1]; [3]", "value": "about 5%"},
      {"measurement": "yield increase over the control, hand-separated", "setting": "[1]; [4]", "value": "about 8%"},
      {"measurement": "seed yield increase compared to the untreated control, mechanically thresh separated", "setting": "[1]; [4]", "value": "~8", "unit": "%"},
      {"measurement": "increase of seed weight", "setting": "[1]; one spray at 'Milky' stage I, hand-separated, mg/seed", "value": "about 15%"},
      {"measurement": "distribution of seed weight at maturity versus control spikes", "setting": "[1]; sprayed at 'Milky' stage I, II or both", "value": "always significantly heavier"},
      {"measurement": "yield, hand-separated", "setting": "[1]; spraying twice at 'Milky' stages I+II versus one spray at stage I", "value": "no advantage"},
      {"measurement": "seed yield, mechanically thresh separated", "setting": "[1]; spraying twice at 'Milky' stages I+II versus spraying once", "value": "no advantage"},
      {"measurement": "increase in grain yield over untreated control plants", "setting": "[2]", "value": "−15", "unit": "%"}
    ]}
  ]
}
